One assay deals with EP4 (Homo sapiens (Human), UniProt P35408). Kind of assay: hEP4 cAMP assay (BT549 breast cancer cells, HTRF cAMP). It is filed as cell-based. The note with it: antagonistic activity; mean values where measured multiple times. As for the experimental part: Plate is pre-incubated 45 minutes at room temperature. Subsequently, 2.5 microliters of PGE2 (final conc. 6 nM) are transferred into the assay plate. Plate is incubated 30 minutes at room temperature.

Another assay has as its target EP2 (Homo sapiens (Human), UniProt P43116).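 Also: antagonism of PGE2-stimulated cAMP accumulation in SF295 human glioblastoma cells with endogenous EP2, cAMP read by HTRF, expressed relative to DMSO control.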

EP2, sequence (P43116 whole entry): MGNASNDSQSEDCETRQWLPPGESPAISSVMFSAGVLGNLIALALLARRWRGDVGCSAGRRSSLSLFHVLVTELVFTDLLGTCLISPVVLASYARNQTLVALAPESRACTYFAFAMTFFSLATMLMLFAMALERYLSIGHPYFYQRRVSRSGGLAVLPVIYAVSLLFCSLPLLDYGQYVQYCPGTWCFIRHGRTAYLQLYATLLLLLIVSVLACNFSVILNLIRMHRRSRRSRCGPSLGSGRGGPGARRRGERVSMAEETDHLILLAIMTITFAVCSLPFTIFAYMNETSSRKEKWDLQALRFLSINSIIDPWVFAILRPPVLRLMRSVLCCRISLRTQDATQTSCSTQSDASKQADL
EP4, sequence (P35408 whole entry): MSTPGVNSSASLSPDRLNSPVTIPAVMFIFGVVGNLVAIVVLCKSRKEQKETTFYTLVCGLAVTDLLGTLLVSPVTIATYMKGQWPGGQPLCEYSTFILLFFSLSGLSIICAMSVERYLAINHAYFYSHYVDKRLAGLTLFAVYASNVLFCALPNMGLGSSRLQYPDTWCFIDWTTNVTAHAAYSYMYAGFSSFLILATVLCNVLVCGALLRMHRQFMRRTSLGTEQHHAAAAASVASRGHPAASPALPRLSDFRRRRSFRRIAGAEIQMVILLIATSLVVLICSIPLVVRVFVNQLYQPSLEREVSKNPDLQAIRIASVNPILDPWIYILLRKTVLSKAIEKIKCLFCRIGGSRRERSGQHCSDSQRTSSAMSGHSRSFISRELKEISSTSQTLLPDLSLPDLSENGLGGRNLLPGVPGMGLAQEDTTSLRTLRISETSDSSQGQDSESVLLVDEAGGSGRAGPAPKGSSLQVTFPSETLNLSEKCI
Description for EP2: Human tumor cell lines expressing endogenously either EP4 or EP2 are used and cAMP accumulation in cells upon PGE2 stimulation is monitored. SF295 glioblastoma cells express high endogenous EP2 and no EP4, whereas BT549 breast cancer cells, express high endogenous EP4 levels and very low EP2 levels.
As a detection method for cAMP the HTRF (homogeneous time resolved fluorescence) Cisbio kit (HTRF cAMP dynamic 2 kit 20′000 tests Cisbio Cat. #62AM4PEC) was used, which is based on a competitive immunoassay using a Cryptate-labeled anti-cAMP antibody and d2-labeled cAMP. Native cAMP produced by cells or unlabeled cAMP (for the standard curve) compete with exogenously added d2-labeled cAMP (acceptor) for binding to monoclonal anti-cAMP-Eu3+Cryptate (donor). A FRET signal (Fluorescence Resonance Energy Transfer) is obtained only if the labeled anti-cAMP antibody binds the d2 labelled cAMP, thus the specific signal (i.e. energy transfer) is inversely proportional to the concentration of cAMP in the standard or sample.
The SF295 cells (NCI/No. 0503170) are detached from culture dishes with a cell dissociation buffer (Invitrogen, 13151-014), and collected in growing medium (GM: RPM11640 (Invitrogen 21875)/10% FCS, 1% Penicilin/streptomycin). Cells are counted washed and resuspended in assay buffer (AB; HBSS, 20 mM HEPES, 0.2% BSA; 2 mM IBMX). 4,000 cells in 5 μl of AB are seeded per well of a small volume 384 well plate (black with flat bottom, Greiner 784076).
PGE2 (Cayman 14010, stock solution: 75 μM in DMSO) is used as agonist at 75 nM final concentration, corresponding to EC80.
Two point five microliters of diluted compounds are transferred into the assay plate. Plate is pre-incubated 45 minutes at room temperature. Subsequently, 2.5 microliters of PGE2 (final conc. 75 nM) are transferred into the assay plate. Plate is incubated 30 minutes at room temperature. Five μl of each donor (anti-cAMP cryptate) and acceptor (cAMP-d2) are added and the plate is incubated another hour at room temperature in the dark and then read using a BMG LABTECH PHERAstar reader (Excitation: 337 nm, Emission: 620 and 665 nm).
The obtained Delta F (fluorescence) values (665 nm/620 nM) are converted into % cAMP values using the measurements of the cAMP calibrator provided in the kit. For each compound concentration the percentage of cAMP compared to DMSO control value as average±STDEV (each concentration is measured in duplicate) is calculated.
IC50 values and curves are generated with XLfit software (IDBS) using Dose-Response One Site model 203. When compounds were measured multiple times, mean values are given.

As a reminder, the IC50 is the concentration that inhibits the measured activity by half. High values mean weaker potency in that assay, low ones greater potency in that assay. In the case of `COc1cc(F)cc2c1cc(C)n2CCNc1cc(-c2ccc(-c3ncnn3C)cc2)ncn1` [Example 753, [2-(6-Fluoro-4-methoxy-2-methyl-indol-1-yl)-ethyl]-{6-[4-(2-methyl-2H-[1,2,4]triazol-3-yl)-phenyl]-pyrimidin-4-yl}-amine], the IC50 against EP4 came to 548 nM; against EP2, 101 nM.
In the same order, the values of `COc1cc(F)cc2c1cc(C)n2CCNc1cc(-c2ccc(-c3ncccn3)cc2)ncn1` [Example 755, [2-(6-Fluoro-4-methoxy-2-methyl-indol-1-yl)-ethyl]-[6-(4-pyrimidin-2-yl-phenyl)-pyrimidin-4-yl]-amine] are 452 nM and 41 nM.
For `COc1ccc(-c2ccc(-c3cc(NCCn4c(C)cc5c(OC)cc(F)cc54)ncn3)cc2)nn1` [Example 756, [2-(6-Fluoro-4-methoxy-2-methyl-indol-1-yl)-ethyl]-{6-[4-(6-methoxy-pyridazin-3-yl)-phenyl]-pyrimidin-4-yl}-amine], the IC50 on EP4 was 194 nM; on EP2, 85 nM.
Take `COc1cnc(-c2ccc(-c3cc(NCCn4c(C)cc5c(OC)cc(F)cc54)ncn3)cc2)nc1` [Example 757, [2-(6-Fluoro-4-methoxy-2-methyl-indol-1-yl)-ethyl]-{6-[4-(5-methoxy-pyrimidin-2-yl)-phenyl]-pyrimidin-4-yl}-amine]: the results for the IC50 against EP4 and against EP2 were 345 nM and 44 nM, respectively.
Taken in the same sequence, the figures for `COc1cc(F)cc2c1cc(C)n2CCNc1cc(-c2ccc(-c3nc(C)cs3)cc2)ncn1` [Example 758, [2-(6-Fluoro-4-methoxy-2-methyl-indol-1-yl)-ethyl]-{6-[4-(4-methyl-thiazol-2-yl)-phenyl]-pyrimidin-4-yl}-amine] were 113 nM and 32 nM.
In the same order, the values of `COc1cc(F)cc2c1cc(C)n2CCNc1cc(-c2ccc(-c3cc(F)ccn3)cc2)ncn1` [Example 759, [2-(6-Fluoro-4-methoxy-2-methyl-indol-1-yl)-ethyl]-{6-[4-(4-fluoro-pyridin-2-yl)-phenyl]-pyrimidin-4-yl}-amine] are 760 nM and 55 nM.
In the same order, the values of `COc1cc(F)cc2c1cc(C)n2CCNc1cc(-c2ccc(-c3nc(C)c(C)s3)cc2)ncn1` [Example 760, {6-[4-(4,5-Dimethyl-thiazol-2-yl)-phenyl]-pyrimidin-4-yl}-[2-(6-fluoro-4-methoxy-2-methyl-indol-1-yl)-ethyl]-amine] are 795 nM and 90 nM.
Take `COc1cncc(-c2ccc(-c3cc(NCCn4c(C)cc5c(OC)cc(F)cc54)ncn3)cc2)n1` [Example 761, [2-(6-Fluoro-4-methoxy-2-methyl-indol-1-yl)-ethyl]-{6-[4-(6-methoxy-pyrazin-2-yl)-phenyl]-pyrimidin-4-yl}-amine]: the results for the IC50 against EP4 and on EP2 were 161 nM and 40 nM, respectively.
In the same order, the values of `COc1cc(F)cc2c1cc(C)n2CCNc1cc(-c2ccc(-c3ncc(F)cn3)cc2)ncn1` [Example 762, [2-(6-Fluoro-4-methoxy-2-methyl-indol-1-yl)-ethyl]-{6-[4-(5-fluoro-pyrimidin-2-yl)-phenyl]-pyrimidin-4-yl}-amine] are 304 nM and 98 nM.
With `COc1cc(F)cc2c1cc(C)n2CCNc1cc(-c2ccc(-c3cc(N(C)C)ncn3)cc2)ncn1` [Example 763, 6-(4-(6-((2-(6-Fluoro-4-methoxy-2-methyl-1H-indol-1-yl)ethyl)amino)pyrimidin-4-yl)phenyl)-N,N-dimethylpyrimidin-4-amine], the figures for the IC50 against EP4 and against EP2 were 139 nM and 25 nM, respectively.
Taken in the same sequence, the figures for `Cc1cc2ccccc2n1CCNc1cc(-c2ccc(-c3nccs3)cc2)ncn1` [Example 764, [2-(2-Methyl-indol-1-yl)-ethyl]-[6-(4-thiazol-2-yl-phenyl)-pyrimidin-4-yl]-amine] were 815 nM and 8 nM.
In the same order, the values of `CCOc1cc(-c2cc(NCCn3c(C)cc4c(OC)ccc(F)c43)ncn2)ccc1C(=O)NOC` [Example 765, 2-Ethoxy-4-{6-[2-(7-fluoro-4-methoxy-2-methyl-indol-1-yl)-ethylamino]-pyrimidin-4-yl}-N-methoxy-benzamide] are 403 nM and 13 nM.
As to `CCONC(=O)c1ccc(-c2cc(NCCn3c(C)cc4c(OC)ccc(F)c43)ncn2)cc1OCC` [Example 767, 2,N-Diethoxy-4-{6-[2-(7-fluoro-4-methoxy-2-methyl-indol-1-yl)-ethylamino]-pyrimidin-4-yl}-benzamide], the IC50 on EP4 amounted to 251 nM; at EP2 it was 20 nM.
Taken in the same sequence, the figures for `CCOc1cc(-c2cc(NCCn3c(C)cc4c(C)ccc(F)c43)ncn2)ccc1C(=O)NOCc1ccccc1` [Example 768, N-Benzyloxy-2-ethoxy-4-{6-[2-(7-fluoro-2,4-dimethyl-indol-1-yl)-ethylamino]-pyrimidin-4-yl}-benzamide] were 928 nM and 35 nM.
Taken in the same sequence, the figures for `CCOc1cc(-c2cc(NCCn3c(C)cc4c(OC)ccc(F)c43)ncn2)ccc1C(=O)NOC(C)C` [Example 770, 2-Ethoxy-4-{6-[2-(7-fluoro-4-methoxy-2-methyl-indol-1-yl)-ethylamino]-pyrimidin-4-yl}-N-isopropoxy-benzamide] were 374 nM and 16 nM.
Taken in the same sequence, the figures for `Cc1cc2ccccc2n1CCNc1cc(-c2ccc3c(=O)[nH][nH]c3c2)ncn1` [Example 772, 6-{6-[2-(2-Methyl-indol-1-yl)-ethylamino]-pyrimidin-4-yl}-1,2-dihydro-indazol-3-one] were 317 nM and 15 nM.
In the case of `COc1ccc(F)c2c1cc(C)n2CCNc1cc(-c2ccc3c(=O)[nH][nH]c3c2)ncn1` [Example 773, 6-{6-[2-(7-Fluoro-4-methoxy-2-methyl-indol-1-yl)-ethylamino]-pyrimidin-4-yl}-1,2-dihydro-indazol-3-one], the IC50 was 49 nM at EP4 and 32 nM against EP2.
In the same order, the values of `Cc1cc2ccccc2n1CCNc1cc(-c2ccc3c(=O)[nH]oc3c2)ncn1` [Example 774, 6-{6-[2-(2-Methyl-indol-1-yl)-ethylamino]-pyrimidin-4-yl}-benzo[d]isoxazol-3-one] are 637 nM and 4 nM.
With `CCOc1cc(-c2cc(NCCn3c(Cl)cc4c(OC)ccc(Cl)c43)ncn2)ccc1C(=O)O` [Example 775, 4-{6-[2-(2,7-Dichloro-4-methoxy-indol-1-yl)-ethylamino]-pyrimidin-4-yl}-2-ethoxy-benzoic acid], the values for the IC50 at EP4 and against EP2 were 206 nM and 10 nM, respectively.
Taken in the same sequence, the figures for `CCOc1cc(-c2cc(NCCn3c(Cl)cc4c(OC)ccc(F)c43)ncn2)ccc1C(=O)O` [Example 776, 4-{6-[2-(2-Chloro-7-fluoro-4-methoxy-indol-1-yl)-ethylamino]-pyrimidin-4-yl}-2-ethoxy-benzoic acid] were 44 nM and 6 nM.
Consider `CCOc1cc(-c2cc(NCCn3c(Cl)cc4c(OC)ccc(F)c43)ncn2)sc1C(=O)O` [Example 777, 5-{6-[2-(2-Chloro-7-fluoro-4-methoxy-indol-1-yl)-ethylamino]-pyrimidin-4-yl}-3-ethoxy-thiophene-2-carboxylic acid], for which the IC50 at EP4 stood at 3 nM; against EP2, 2 nM.
Regarding `CCOc1cc(-c2cc(NCCn3c(Cl)cc4c(Cl)ccc(F)c43)ncn2)ccc1C(=O)O` [Example 778, 4-{6-[2-(2,4-Dichloro-7-fluoro-indol-1-yl)-ethylamino]-pyrimidin-4-yl}-2-ethoxy-benzoic acid], the IC50 came out at 175 nM on EP4 and 15 nM against EP2.
In the same order, the values of `CCOc1cc(-c2cc(NCCn3c(Cl)cc4c(C)ccc(F)c43)ncn2)ccc1C(=O)O` [Example 779, 4-{6-[2-(2-Chloro-7-fluoro-4-methyl-indol-1-yl)-ethylamino]-pyrimidin-4-yl}-2-ethoxy-benzoic acid] are 242 nM and 28 nM.
In the same order, the values of `CCOc1cc(-c2cc(NCCn3c(C)cc4c(Br)cccc43)ncn2)ccc1C(=O)O` [Example 780, 4-{6-[2-(4-Bromo-2-methyl-indol-1-yl)-ethylamino]-pyrimidin-4-yl}-2-ethoxy-benzoic acid] are 826 nM and 6 nM.
Taken in the same sequence, the figures for `CCOc1cc(-c2cc(NCCn3c(C)cc4c(Br)cccc43)ncn2)sc1C(=O)O` [Example 781, 5-{6-[2-(4-Bromo-2-methyl-indol-1-yl)-ethylamino]-pyrimidin-4-yl}-3-ethoxy-thiophene-2-carboxylic acid] were 18 nM and 1 nM.
As for `COc1c(F)cc(Cl)c2c1cc(C)n2CCNc1cc(-c2ccc3c(=O)[nH][nH]c3c2)ncn1` [Example 782, 6-{6-[2-(7-Chloro-5-fluoro-4-methoxy-2-methyl-indol-1-yl)-ethylamino]-pyrimidin-4-yl}-1,2-dihydro-indazol-3-one], the IC50 was 91 nM against EP4 and 39 nM against EP2.
In the same order, the values of `COc1c(F)cc(Cl)c2c1cc(C)n2CCNc1cc(-c2ccc3[nH][nH]c(=O)c3c2)ncn1` [Example 783, 5-{6-[2-(7-Chloro-5-fluoro-4-methoxy-2-methyl-indol-1-yl)-ethylamino]-pyrimidin-4-yl}-1,2-dihydro-indazol-3-one] are 912 nM and 271 nM.
In the same order, the values of `Cc1ccc(F)c2c1cc(C)n2CCNc1cc(-c2ccc(-c3csc(CC(N)=O)n3)cc2)ncn1` [Example 784, 2-[4-(4-{6-[2-(7-Fluoro-2,4-dimethyl-indol-1-yl)-ethylamino]-pyrimidin-4-yl}-phenyl)-thiazol-2-yl]-acetamide] are 512 nM and 63 nM.
Consider `COc1cccc2c1cc(C)n2CCNc1cc(-c2ccc(-c3csc(CC(N)=O)n3)cc2)ncn1` [Example 785, 2-[4-(4-{6-[2-(4-Methoxy-2-methyl-indol-1-yl)-ethylamino]-pyrimidin-4-yl}-phenyl)-thiazol-2-yl]-acetamide], for which the figures for the IC50 against EP4 and against EP2 were 906 nM and 13 nM, respectively.

Values taken from US12011444B2, “N-substituted indole derivatives as PGE2 receptor modulators” (Idorsia Pharmaceuticals Ltd, priority 2015, dated 2024).
